Each structure is given as a SMILES string.

Type in all cases: in vivo
Assay [1] concerns peach aphids (Myzus persicae). Briefly: Myzus test. The note with it: infested cabbage leaves dipped, active compound concentration 0.1 %. The method, then:
(§1) To produce a suitable preparation of active compound, 1 part by weight of active compound is mixed with the stated amount of solvent and the stated amount of emulsifier, and the concentrate is diluted with water to the desired concentration.
Cabbage leaves (Brassica oleracea) which are heavily infested by peach aphids (Myzus persicae) are treated by being dipped into the preparation of active compound of the desired concentration.
After the desired period of time, the kill in % is determined. 100% means that all the aphids have been killed, 0% means that none of the aphids have been killed.

In assay [2] the test system is caterpillars of the owlett moth (Spodoptera frugiperda). Briefly: Spodoptera test. The note with it: cabbage leaves dipped, active compound concentration 0.1 %. How it is done: as §1
Cabbage leaves (Brassica oleracea) are treated by being dipped into the preparation of active compound of the desired concentration and are populated with caterpillars of the owlett moth (Spodoptera frugiperda) while the leaves are still moist.
After the desired period of time, the kill in % is determined. 100% means that all the caterpillars have been killed; 0% means that none of the caterpillars have been killed.

The subject of a further assay is Venturia inaequalis. Nature of the assay: Venturia test (apple)/protective (Example K, application rate). To be noted: protective, application rate 100 g/ha, evaluation 12 days after inoculation. The method, then: Venturia Test (Apple)/Protective
To produce a suitable preparation of active compound, 1 part by weight of active compound is mixed with the stated amounts of solvent and emulsifier, and the concentrate is diluted with water to the desired concentration.
To test for protective activity, young plants are sprayed with the preparation of active compound at the stated application rate. After the spray-coating has dried on, the plants are inoculated with an aqueous Conidia suspension of the causative organism of apple scab Venturia inaequalis and then remain in an incubation cabin at approximately 20° C. and 100% relative atmospheric humidity for 1 day.
The plants are subsequently placed in a greenhouse at approximately 21° C. and a relative atmospheric humidity of approximately 90%.
Evaluation is carried out 12 days after the inoculation. 0% means an efficacy which corresponds to that of the control, while an efficacy of 100% means that no infection is observed.

Turning to `Cc1cccc(OCc2ccccc2NC(=O)c2cn(C)nc2C(F)(F)F)c1` [drawing 539], the “Degree of kill in % after 7 d” value in assay [1] worked out at 95%.

`Cc1ccc(OCc2ccccc2NC(=O)c2cn(C)nc2C)cc1`: in assay [2], the “Degree of kill in % after 7 d” value came to 100%.

`CC1=C(C(=O)Nc2ccccc2Oc2ccccc2)SCCO1` gave an Efficacy in % in the assay on Venturia inaequalis of 100%.
